Assay results as given in US10428115B2, “Dynorphin A analogs with bradykinin receptors specificity for modulation of neuropathic pain” (THE ARIZONA BOARD OF REGENTS ON BEHALF OF THE UNIVERSITY OF …, priority 2013, dated 2019).
Like-named read-outs stand apart in the source and are kept apart here. Square brackets hold non-standard residues; d marks the D form. Ends that are not written are not given here. Nle = CCCC[C@H](N)C(=O)O

Legend:
[1] = target: rat brain bradykinin receptors; test: Radioligand competition binding against [3H]DALKD in rat brain membranes; details: for IC50: [3H]DALKD
Experimental: Binding affinities of dynorphin A analogs at the bradykinin receptors were determined by radioligand competition analysis using [^3H]DALKD or [^3H]BK in rat brain membranes or transfected HEK 293 cells expressing the human B2R. Crude rat brain membranes were pelleted and resuspended in 50 mM Tris buffer containing 50 μg/mL bacitracin, 10 μM captopril, 100 μM PMSF, and 5 mg/mL BSA. 10 concentrations of a test compound were each incubated with 50 μg of membranes and [^3H]DALKD (1 nM, 76.0 Ci/mmol) or [^3H]BK (1 nM, 85.4 Ci/mmol) at 25° C. for 2 h. Non-specific binding was defined by that in the presence of […] KD in all assays. Reactions were terminated by rapid filtration through Whatman GF/B filters presoaked in 1% polyethyleneimine, followed with four washes of 2 mL cold saline. Radioactivity was determined by liquid scintillation counting in a Beckman LS5000 TD. Data were analyzed by non-linear least squares analysis using GraphPad Prism (Version 4). […]

guinea pig ileum = details: compared with the enkephalins and β-endorphin; cited from earlier work
[2] = Stability in plasma (t1/2)
SNL rats = test: Reversal of thermal hyperalgesia and tactile hypersensitivity in SNL rats (neuropathic pain model); type: in vivo, rat
[3] = test system: bradykinin-induced plasma extravasation; test: Bradykinin-induced rat paw oedema and plasma extravasation, intraplantar injection; type: in vivo
Experimental: Experiments were conducted on non-fasted male Sprague-Dawley rats (250-300 g) kept in a room controlled for temperature (22±2° C.) and illumination (12 h on and 12 h off). Under ketamine/xylazine (80/12 mg/kg, i.p.) anesthesia animals received an injection of Evans Blue (30 mg/mL/kg, i.v.) via tail vein and baseline paw volume for both hindpaws was measured by use of a plethysmometer (Ugo Basile). Animals then received 0.1 mL i.pl. injections in one hindpaw of normal saline (0.9% NaCl) containing BK either alone or mixed with HOE140 or LYS1044 (10 nmol/paw each). The contralateral paw received 0.1 mL saline and was used as a control. Oedema was measured at several 30, 60 and 90 min post i.pl. injections and expressed in mL as the difference (mL) between the test and control paws. Three hours post BK injections, animals were sacrificed and patches (10×5 mm) of the dorsal skin from both hindpaws were collected. The skin patches were then incubated separately in Eppendorf tubes containing 1.8 mL formamide at 60° C. water bath for 24 h to extract the dye. The tissue extraction was then centrifuged at 15000 rpm for 15 min and the supernatant was pipetted to a 96 well plate as triplicates and the absorbance was determined at 620 nm. The difference of the mean absorbance between the two hindpaws of each rat was used to compare the degree of plasma extravasation in different treatment groups.

naive rats = test: Motor function and paralysis after intrathecal injection (hindlimb tests, tail-flick) in naive rats; type: in vivo, rat; details: for motor function after intrathecal (spinal) injection: naive rats
Experimental: Intrathecal (i.th.) catheterization. While under ketamine/xylazine (80/12 mg/kg, i.p.) anesthesia, some groups of rats were implanted with i.th. catheters (polyethylene 10, 7.8 cm) through atlanto-occipital membrane extended to the level of the lumbar spinal cord for drug administration. Animals were allowed to recover for 7 days. Drugs were injected in a volume of 5 μl, followed by a 1 μl air bubble and a 9 μl saline flush.
Tail-flick test. The hot-water tail-flick test was performed by placing the distal third of the tail in a water bath maintained at 52° C. The latency until tail withdrawal from the bath was determined and compared among the treatments. A 10 sec cutoff was used to avoid tissue damage. Data were converted to percentage of antinociception by the following formula: (response latency−baseline latency)/(cutoff−baseline latency)*100.

[4] = Table 1, brain bradykinin receptors, pH 6.8, read-out: IC50 (nM) at pH 6.8, n ≥ 2
[5] = Table 1, brain bradykinin receptors, pH 7.4, read-out: IC50 (nM) at pH 7.4, n ≥ 2
[6] = Table 5, rat brain bradykinin receptors, pH 7.4, read-out: IC50 (nM) at pH 7.4, N > 2
[7] = Table 4, rat brain bradykinin receptors, pH 7.4, read-out: IC50 (nM) at pH 7.4, N > 2
[8] = Table 3, rat brain bradykinin receptors, pH 7.4, read-out: IC50 (nM) at pH 7.4, N > 2
[9] = Table 2, rat brain bradykinin receptors, pH 7.4, read-out: IC50 (nM) at pH 7.4, n > 2
[10] = Table 6, rat brain bradykinin receptors, pH 6.8, read-out: IC50 (nM), cell marked at pH 6.8
[11] = Table 6, rat brain bradykinin receptors, pH 7.4, read-out: IC50 (nM) at pH 7.4, N > 2
[12] = Table 5, rat brain bradykinin receptors, pH 6.8, read-out: IC50 (nM), cell marked at pH 6.8

Compound: IRPKLK [LYS1039, Ile-Arg-Pro-Lys-Leu-Lys]
- IC50 [1, 4]: 63 nM
- IC50 [1, 5]: 81 nM

Compound: Tyr-Gly-Gly-Phe-Leu-Arg-Arg-Ile-Arg-Pro-Lys-Leu-Lys (YGGFLRRIRPKLK; listed as Homo sapiens) [dynorphin A-(1-13)]
- activity in guinea pig ileum test (guinea pig ileum): substantially more active than the enkephalins and β-endorphin

Compound: CC[C@H](C)[C@H](NC(=O)[C@H](CCCNC(=N)N)NC(=O)[C@H](CC(C)C)NC(=O)[C@@H](N)Cc1ccccc1)C(=O)N[C@@H](CCCNC(=N)N)C(=O)N1CCC[C@H]1C(=O)N[C@@H](CCCCN)C(=O)O [LYS1044, Phe-Leu-Arg-Ile-Arg-Pro-Lys]
- half-life [2]: < 3 h
- anti-allodynic effect (SNL rats; tactile hypersensitivity): anti-allodynic effects
- anti-hyperalgesic effect (SNL rats; thermal hyperalgesia): dose dependent anti-hyperalgesic
- changes in paw volume [3]: does not show changes in paw volume
- prevention of bradykinin-induced plasma extravasation [3]: does not prevent bradykinin-induced plasma extravasation
- toxic effect on rotarod experiment (Rotarod experiment): no toxic effect
- motor function after intrathecal (spinal) injection (naive rats): does not produce motor impairment
- prevention of dynorphin A-(2-13)-induced paralysis (naive rats; spinal administration): prevents dynorphin A-(2-13)-induced paralysis

Compound: GFLRIRPKLK [LYS1042, Gly-Phe-Leu-Arg-Ile-Arg-Pro-Lys-Leu-Lys]
- IC50 [1, 4]: 26 nM
- IC50 [1, 5]: 41 nM
- IC50 [1, 6]: 43 nM

Compound: PKLK [LYS1038, Pro-Lys-Leu-Lys]
- IC50 [1, 4]: 210 nM
- IC50 [1, 5]: 120 nM

Compound: AN108-1: dynorphin A analog; Table 4 prints only changes: Ac- at 4, Nle at 5, Nle at 8, Arg at 11 (Ac-F[Nle]R[Nle]RPR)
- IC50 [1, 7]: 140 nM

Compound: AN108-4: dynorphin A analog; Table 4 prints only changes: Ac-DPhe at 4, Nle at 5, Nle at 8, Arg at 11 (Ac-[dF][Nle]R[Nle]RPR)
- IC50 [1, 7]: 54 nM

Compound: FLRRIRPK [LYS1026, Phe-Leu-Arg-Arg-Ile-Arg-Pro-Lys]
- IC50 [1, 4]: 69 nM
- IC50 [1, 5]: 140 nM
- IC50 [1, 8]: 140 nM

Compound: GFLRIR [Analogs J101, Gly-Phe-Leu-Arg-Ile-Arg]
- IC50 [1, 6]: 620 nM

Compound: LRIRPKLK [LYS1040, Leu-Arg-Ile-Arg-Pro-Lys-Leu-Lys]
- IC50 [1, 4]: 30 nM
- IC50 [1, 5]: 68 nM
- IC50 [1, 6]: 68 nM

Compound: GFLRRI [LYS1004, Gly-Phe-Leu-Arg-Arg-Ile]
- IC50 [1, 9]: 2300 nM

Compound: RPKLK [LYS1113, Arg-Pro-Lys-Leu-Lys]
- IC50 [1, 4]: 58 nM

Compound: LRRIRPKL [LYS1022, Leu-Arg-Arg-Ile-Arg-Pro-Lys-Leu]
- IC50 [1, 8]: 7100 nM

Compound: GFLRR [BP006D, Gly-Phe-Leu-Arg-Arg]
- IC50 [1, 9]: 8100 nM

Compound: Ac-Phe-Leu-Arg-Ile-Arg-Pro-DLys (Ac-FLRIRP[dK]) [AP111]
- IC50 [1, 8]: 550 nM

Compound: GFLRRIRP [BP1004D, Gly-Phe-Leu-Arg-Arg-Ile-Arg-Pro]
- IC50 [1, 9]: 1200 nM

Compound: FLRIRPK [AP107-1, Ac-Phe-Leu-Arg-Ile-Arg-Pro-Lys]
- IC50 [1, 8]: 120 nM
- IC50 [1, 7]: 120 nM

Compound: CC[C@H](C)[C@H](NC(=O)[C@H](CCCNC(=N)N)NC(=O)[C@H](CCCNC(=N)N)NC(=O)[C@H](CC(C)C)NC(=O)[C@H](Cc1ccccc1)NC(=O)CNC(=O)CN)C(=O)N[C@@H](CCCNC(=N)N)C(=O)N1CCC[C@H]1C(=O)N[C@@H](CCCCN)C(=O)N[C@@H](CC(C)C)C(=O)N[C@@H](CCCCN)C(=O)O [Dyn (2-13), Gly-Gly-Phe-Leu-Arg-Arg-Ile-Arg-Pro-Lys-Leu-Lys, reference compound]
- IC50 [1, 4]: 21 nM
- IC50 [1, 5]: 170 nM
- motor function after intrathecal (spinal) injection (naive rats): produces disturbances of motor function and antinociception

Compound: CC[C@H](C)[C@H](NC(=O)[C@H](CCCNC(=N)N)NC(=O)[C@@H](CC(C)C)NC(=O)[C@@H](N)Cc1ccccc1)C(=O)N[C@@H](CCCNC(=N)N)C(=O)N1CCC[C@H]1C(=O)N[C@@H](CCCCN)C(=O)O [SH145]
- half-life [2]: > 24 h
- IC50 [1, 10]: 99 nM
- binding affinity at bradykinin receptors (in words) ([1]; rat brain bradykinin receptors): retained the same high binding affinity as LYS1044

Compound: FLRRIRPK [Analogs S1F, Phe-Leu-Arg-Arg-Ile-Arg-Pro-Lys-NH2]
- IC50 [1, 8]: 6800 nM

Compound: GFLR [LYS1035, Gly-Phe-Leu-Arg]
- IC50 [1, 9]: 950 nM
- IC50 [1, 8]: 950 nM

Compound: FIRIRPR [AN105]
- IC50 [1, 11]: 110 nM

Compound: GFLRRIRPKLK [LYS1021, Gly-Phe-Leu-Arg-Arg-Ile-Arg-Pro-Lys-Leu-Lys]
- IC50 [1, 9]: 320 nM

Compound: LRIRPK [LYS1043, Leu-Arg-Ile-Arg-Pro-Lys]
- IC50 [1, 6]: 180 nM

Compound: FLRLRPR [AN106]
- IC50 [1, 11]: 100 nM

Compound: GFLRRIR [Analogs J104, Gly-Phe-Leu-Arg-Arg-Ile-Arg]
- IC50 [1, 9]: 780 nM

Compound: RIRPKL [RK108, Arg-Ile-Arg-Pro-Lys-Leu-NH2]
- IC50 [1, 8]: 6300 nM

Compound: WLRIRPK [AN103]
- IC50 [1, 11]: 190 nM

Compound: GFLRIRPK [LYS1045, Gly-Phe-Leu-Arg-Ile-Arg-Pro-Lys]
- IC50 [1, 6]: 130 nM

Compound: GFLR [LYS1031, Gly-Phe-Leu-Arg-NH2]
- IC50 [1, 8]: > 10000 nM

Compound: GFLRRIRPKL [LYS1024, Gly-Phe-Leu-Arg-Arg-Ile-Arg-Pro-Lys-Leu]
- IC50 [1, 9]: 280 nM

Compound: FLRIRPR [AN104]
- IC50 [1, 7]: 210 nM
- IC50 [1, 11]: 210 nM

Compound: AN101: modified dynorphin A analog; Table 6 prints only the change: Nle at position 8 (FLR[Nle]RPK)
- IC50 [1, 11]: 140 nM

Compound: GFLRRIRPK [LYS1027, Gly-Phe-Leu-Arg-Arg-Ile-Arg-Pro-Lys]
- IC50 [1, 9]: 130 nM

Compound: AN109: dynorphin A analog; Table 4 prints only changes: Ac- in Gly^3 column, Nle at 5, Nle at 8, Arg at 11 (Ac-GF[Nle]R[Nle]RPR)
- IC50 [1, 7]: 210 nM

Compound: LYS1107: modified dynorphin A analog; Table 6 prints only the change: Nle at position 12 (PK[Nle]K; ends and bridges not checked; also: modified dynorphin A analog, full sequence beyond listed fragment not given here)
- IC50 [1, 11]: 72 nM

Compound: IRPKL [RK107, Ile-Arg-Pro-Lys-Leu-NH2]
- IC50 [1, 8]: 8700 nM

Compound: GGFLRIRPKLK [CYF103, Gly-Gly-Phe-Leu-Arg-Ile-Arg-Pro-Lys-Leu-Lys]
- IC50 [1, 4]: 41 nM
- IC50 [1, 12]: 41 nM

Compound: SH124: modified dynorphin A analog; Table 6 prints only changes: Nle at 8, Lys at 9, Nle at 12 ([Nle]KPK[Nle]K; ends and bridges not checked; also: modified dynorphin A analog, full sequence beyond listed fragment not given here)
- IC50 [1, 10]: 78 nM

Compound: FLRRIRRPK [SH114, Phe-Leu-Arg-Arg-Ile-Arg-Arg-Pro-Lys]
- IC50 [1, 12]: 74 nM

Compound: RIRPKLK [LYS1114, Arg-Ile-Arg-Pro-Lys-Leu-Lys]
- IC50 [1, 4]: 72 nM
